Experimental data reported in patent publication US20150328329A1, “LIGANDS THAT TARGET HCV-E2 BINDING SITES ON CD81 AND THERAPEUTIC METHODS USING THEM” (American University of Cairo, priority 2012, published 2015).

Assays:
[1] = biological target: T1, recombinant CD81-LEL (GST tag) (Homo sapiens, UniProt P60033); test: Surface plasmon resonance (Biacore T200) binding of ligands to immobilized recombinant CD81-LEL; settings: Table A; ligand 600 μM in PBS-0.05% Tween-80; CD81-LEL-GST on CM5 chip
T1 construct: the large extracellular loop of CD81 (CD81-LEL); gift of Dr. Shoshana Levy, Stanford University
T1 sequence (P60033 113-201 limits assumed): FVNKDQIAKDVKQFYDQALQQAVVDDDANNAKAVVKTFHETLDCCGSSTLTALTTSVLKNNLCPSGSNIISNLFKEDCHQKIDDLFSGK
Protocol: SPR analysis was performed using a Biacore T200 workstation (GE Healthcare, NJ, USA). A recombinant form of the CD81-LEL protein with a GST tag (generously provided by Dr. Shoshana Levy, Stanford University) was used to confirm, using an established experimental technique, the binding of several ligands to the protein. Briefly, 10 μM CD81-LEL-GST diluted into 10 mM Na-Acetate buffer pH 4.5 was immobilized for 15 min at a flow speed of 5 μl/min onto a CM5 sensor chip using amine-coupling (EDC-NHS). Approximately 20,000 RU of protein were immobilized on the chip. The ligands were prepared as 600 μM solutions in PBS-0.05% Tween-80 (the running buffer) and they were introduced to the protein using a pre-programmed 3 minute association and 1 minute dissociation interval.
The binding affinity of the most tightly bound ligand in the group selected for ligand conjugate design (Ligand 1) was estimated using data collected from a series of SPR binding experiments conducted at different ligand concentrations. To obtain the kinetic and affinity data needed to estimate the Kd, the original ligand was diluted serially with running buffer to produce seven different ligand concentrations: 1024 μM, […], 256 μM, 128 μM, 64 μM, 32 μM and 0 μM. Data were fitted using a monovalent binding model.
A total of 36 ligands were tested experimentally using surface Plasmon resonance (on a Biacore T200 instrument) to identify which of the molecules calculated to bind to Sites 1 and 2 on CD81 actually bind to a recombinant form of the protein (CD81-LEL). Twenty-six of the molecules provided a positive change in response units (RU) upon introduction to a chip containing the immobilized protein (Table A), indicating the ligands bound to the protein. The measured responses for the ligands that bound varied from 2.3 to 78.4 RU. Those ligands providing the largest responses tended to be molecules that were calculated to bind more deeply inside cavities in Site 1 (ligands 30930, 98026, 7436, 5069), Site 2 (ligands 127947, 38743) or Site 4 (ligands 78623, 16631).
Experimental analysis of ligand binding to recombinant CD81 LEL. Forty ligands calculated by AutoDock to bind to sites 1 and 2 on CD81-LEL were tested experimentally using surface Plasmon resonance as described in the Materials and Methods section. Ligand code numbers are those assigned by the National Cancer Institute. […] Because the binding experiments were performed by passing the same concentration of each ligand sequentially across the same protein coated chip using both techniques, the magnitude of the responses can be used to provide an approximate ranking of binding strength.

[2] = biological target: T2, recombinant CD81-LEL (Homo sapiens, UniProt P60033); test: Dual polarization interferometry (DPI) binding of ligands to immobilized recombinant CD81-LEL; settings: for DPI Radians: Table A; for DPI Radians / DPI Response (Radians), ligand added to CD81 protein: ligand 500 μM in PBS, 2.5% DMSO; for DPI Response (Radians), ligand added to CD81 protein: Table B and b111
T2 construct: the large extracellular loop of CD81 (CD81-LEL); GST; His; Shoshana Levy Lab, Stanford (gift)
T2 sequence (P60033 113-201 limits assumed): T1 sequence (P60033 113-201 limits assumed)
Protocol: DPI analyses were performed using an AnaLight 4D workstation (Farfield Group, Manchester UK). The recombinant CD81-LEL was immobilized onto a Thiol AnaChip using Sulfo-GMBS as a cross-linker in PBS running buffer. Non-specific sites were blocked with digested casein. TRIS was used to cap the cross-linker, blocking any additional amines from covalently binding to the cross-linker on the chip surface. Ligands were prepared as a 20 mM stock solutions in DMSO. Each ligand was diluted to a final concentration of 500 μM in PBS just prior to injection (final DMSO concentration was 2.5%). PBS and DMSO mixed in the same ratio were used as a blank. Data collection and analysis were performed using the AnaLight Resolver.
Six of the more interesting ligand candidates being considered for use in creating a ligand conjugate (three calculated to bind to Site 1 and three calculated to bind to Site 2) were further tested to confirm binding using a second experimental technique, dual polarization interferometry. The results, shown in FIG. 6, confirmed that all six ligands bound to the protein. The relative rank in strength of binding of the Site 1 and 2 ligands, as determined by DPI, were also similar to the ranking obtained by SPR or calculated by AutoDock for the majority of the ligands. […] One reason for this observed difference in the DPI response may relate to conformational changes in the protein that occur when the small molecules bind. The change in radians measured using DPI when a ligand binds to a protein is known to result from a combination of two effects: 1) the resulting increase in mass/volume when the ligand binds to the protein on the surface of the chip and 2) a conformational change in the protein induced by the binding of the ligand. Molecules binding in the deeper cavity would be expected to have more and stronger contacts with the protein than ligands sitting exposed to solvent in shallow cavities or surface binding sites. […]

[3] = biological target: T3, native CD81 on Raji cells (Homo sapiens, UniProt P60033); test: Competition assay: inhibition of FITC-labeled JS-81 anti-CD81 antibody binding to native CD81 on live Raji cells (flow cytometry); type: cell-based
T3 construct: endogenous in cells; host or cells: Raji (human B cell line)
T3 sequence (P60033 1-236): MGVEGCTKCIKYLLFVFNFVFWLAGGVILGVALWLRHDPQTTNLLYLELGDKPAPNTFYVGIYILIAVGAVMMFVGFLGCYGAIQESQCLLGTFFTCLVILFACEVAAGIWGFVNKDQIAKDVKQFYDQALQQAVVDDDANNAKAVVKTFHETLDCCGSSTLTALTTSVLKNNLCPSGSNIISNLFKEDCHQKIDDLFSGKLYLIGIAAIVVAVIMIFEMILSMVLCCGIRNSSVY
Source text: A subset of these ligands and some of those listed in the patent have been tested to identify those ligands that bind to the correct region of the CD81 protein and for binding to native CD81 on living cells (a Raji cell line). This assay tests three concentrations of the ligand to determine if the ligand is capable of inhibiting the binding of an antibody called JS-81. This antibody is known to bind to the region of the CD81 protein we have targeted. If the ligand decreases JS-81 binding as you increase the concentration of the ligand, it is 1) binding to native CD81 on the Raji cells and 2) it is binding to the correct region of the protein.
For antibody neutralization assay Raji cells were used, a human B cell line that expressed high amounts of CD81 on the surface (data not shown). Cells were grown in RPMI medium (10% FCS, 1% penicillin/streptomycin, 1% L-glutamine, 1% non-essential amino acids, 1% sodium pyruvate, pH 7.4, at 37° C. with 5% CO2). 2×10^5 cells were incubated with or without different concentrations (50 μM, 100 μM, 400 μM and 1 mM) of indicated inhibitor for 20 min at room temperature, subsequently 1 ul (16 ng/μl) of FITC-labeled anti CD81 antibody (BD Pharmingen, 551108) was added to the cells and incubated for 20 min (antibody titration was performed to obtain a working dilution range, data not shown). Cells were washed and analyzed by flow cytometry using fluorescence-activated cell sorting (FACS) (BD FACSCalibur, software: Cell Quest Pro). Mean Fluorescence Intensity MFI was calculated using Flowjo software (TreesStar, www.flowjo.com).

For `COc1cc(CCC(=O)O)on1` [Ligand 303800], the “SPR Response Units” value [1] was 7.8 RU.

In the case of `CC(C)CNC(=O)/C=C\C(=O)O` [Ligand 55573], the “SPR Response Units” value [1] is reported as 10.6 RU.

For `O=C(O)/C=C\C(=O)Nc1nccs1` [Ligand 80807], the “DPI Radians” value [2] was 0.1909 Radians.

With `O=C(O)CCC1(c2ccccc2)NC(=O)NC1=O` (centres unmarked) [Ligand 38743] the “DPI Response (Radians), ligand added to CD81 protein” value (“DPI Response (Radians), ligand added” for short) [2] was 0.8593 Radians and the “SPR Response Units” value [1] was 30.6 RU.

In the case of `COc1cc(-c2ccc(Nc3ccccc3C(=O)O)c(OC)c2)ccc1Nc1ccccc1C(=O)O` [Ligand 73735], the “Inhibition of JS-81 Binding (%)” value ([3]; 50 μM ligand) is reported as 0%, the “Inhibition of JS-81 Binding (%)” value ([3]; 100 μM ligand) is reported as 0% and the “Inhibition of JS-81 Binding (%)” value ([3]; 400 μM ligand) is reported as 24%. For the same molecule, the “SPR Response Units” value [1] was 1957.8 RU.

For `COc1ccccc1/C=C(\C#N)C(=O)O` [Ligand 638134], the “SPR Response Units” value [1] was 25 RU.

For `NC(=S)Nc1cccc(Cl)c1` [Ligand 164965], the “DPI Radians” value [2] was 0.7494 Radians and the “DPI Response (Radians), ligand added” value [2] was 0.7494 Radians.

With `O=C(Nc1ccc(O)c(C(=O)O)c1)Oc1ccccc1` [Ligand 68971] the “SPR Response Units” value [1] was 12.1 RU.

In the case of `O=C(O)c1ccccc1C(=O)Nc1ccccc1[N+](=O)[O-]` [Ligand 41066], the “DPI Radians” value [2] is reported as 0.2700 Radians.

For `Cn1c(=O)c2[nH]c(CNc3ccc(C(=O)O)cc3)nc2n(C)c1=O` [Ligand 81750], the “DPI Radians” value [2] was 0.4360 Radians.

`Nc1nc(O)c(CC(=O)O)s1` [Ligand 70980] was tested, and the “SPR Response Units” value [1] was 14.1 RU.

For `CC(C)=CCC1=C(OCC(=O)O)C(=O)c2ccccc2C1=O` [Ligand 98026], the “Inhibition of JS-81 Binding (%)” value ([3]; 50 μM ligand) was 0%, the “Inhibition of JS-81 Binding (%)” value ([3]; 100 μM ligand) was 0% and the “Inhibition of JS-81 Binding (%)” value ([3]; 400 μM ligand) was 21%. For the same molecule, the “DPI Response (Radians), ligand added” value [2] was 1.1918 Radians and the “SPR Response Units” value [1] was 50 RU.

`O=C(O)/C=C\c1cc2c(cc1[N+](=O)[O-])OCO2` [Ligand 21034] was tested, and the “SPR Response Units” value [1] was 21.1 RU.

For `CC(C)(C)c1ccc(NS(=O)(=O)c2ccc(N)cc2)cc1` [Ligand 7436], the “Inhibition of JS-81 Binding (%)” value ([3]; 50 μM ligand) was 0%, the “Inhibition of JS-81 Binding (%)” value ([3]; 100 μM ligand) was 12% and the “Inhibition of JS-81 Binding (%)” value ([3]; 400 μM ligand) was 11%. The “SPR Response Units” value [1] was 78.4 RU.

For `O=C(O)CCCCC1SCC2NC(=O)NC21` (centres unmarked) [Ligand 63865], the “SPR Response Units” value [1] was 58 RU.

In the case of `CCCNC1=C(C)C(=O)C2=C(C1=O)C(COC(N)=O)C1(OC)C3NC3CN21` (centres unmarked) [Ligand 123115], the “SPR Response Units” value [1] is reported as 34.5 RU.

In the case of `O=C(O)c1ccc(O)c(O)c1` [Ligand 16631], the “SPR Response Units” value [1] is reported as 61.8 RU.

For `NC(=O)CCC(C(=O)O)N1C(=O)c2ccc(O)cc2C1=O` (centres unmarked) [Ligand 78623], the “SPR Response Units” value [1] was 54.5 RU.

In the case of `O=C(O)CSc1nc2ccccc2s1` [Ligand 11891], the “SPR Response Units” value [1] is reported as 15.2 RU.

For `O=C(O)CC1OCC=C2CN3CCC45C6=CC(=O)C(=O)C([N+](=O)[O-])=C6NC4C1C2CC35` (centres unmarked) [Ligand 5069], the “SPR Response Units” value [1] was 67.5 RU.

`CC(C)OC1CCCC(O)C1CC(=O)O` (centres unmarked) [Ligand 25368] was tested, and the “SPR Response Units” value [1] was 13.3 RU.

With `O=C(OCc1ccccc1)c1ccccc1O` [Benzyl salicylate, reference compound] the “DPI Response (Radians), ligand added” value [2] was 0.5818 Radians and the “DPI Response (Radians), ligand added” value ([2]; listed as benzyl salicylate) was 0.58 Radians.

With `O=C(O)Cn1cnc2c(=S)nc[nH]c21` [Ligand 36914] the “DPI Radians” value [2] was 0.1448 Radians.

`N=C(N)N/N=C/c1c(Cl)cccc1Cl` [Ligand 68982] was tested, and the “Inhibition of JS-81 Binding (%)” value ([3]; 50 μM ligand) was 0%, the “Inhibition of JS-81 Binding (%)” value ([3]; 100 μM ligand) was 13% and the “Inhibition of JS-81 Binding (%)” value ([3]; 400 μM ligand) was 15%. The “SPR Response Units” value [1] was 41.2 RU.

B1: E2 Protein: HCV E2 envelope glycoprotein that binds CD81 (protein)
chain: QTHITGGSTAHAAAGLANLFSMGPKQDIRLINTNGSWHINRTALNCNESLNTGWVAGLLYYNKFNSSGCSERLASCRPLTDFAQGWGPISYANGSGPDQRPYCWHYPPRPCGIVPAKSVCGPVYCFTPSPVVVGTTDRSGAPTYSWGENETDVFILNNTRPPLGNWFGCTWMNSSGFTKVCGAPPCVIGGVGNNTLRCPTDCFRKHPEATYSRCGSGPWITPRCLVNYPYRLWHYPCTINYTIFKVRMYVGGVEHRLEAACNWTRGERCDLEDRDRSELSPLLLSTTQWQVLPCSFTTLPALSTGLIHLHQNIVDVQYLYGVGSSIASWAIKWDYVVLLFLLLADARVCSCLWMMLLISQAEA
In the case of B1, the “DPI Binding Response (Radians), molecule added alone to CD81” value ([2]; Table D, single molecule added to CD81) is reported as 4.1402 Radians.
